Tests used:
Assay type in all cases: biochemical
[1] = Monitoring a 1,3-dipolar cycloaddition (click) reaction in situ using single ion channel recordings; settings: 40 pM gramicidazide, 2 mM propargyl sulfonate, 0.5 mM CuSO4
Method: Gramicidazide was added to a final concentration of 40 pM to both 4 mL chambers of a stirred lipid bilayer setup comprised of zwitterionic 1,2-diphytanoyl-sn-glycero-3-phosphatidylcholine (DiPhyPC) lipids that separated two compartments containing 20 mM KCl, 0.2 mM HEPES buffer, 2 mM sodium ascorbate (as a reducing agent for Cu^II), and 2 mM propargyl sulfonate. The final pH of this solution was 6.9. CuSO4 was added (to give a final concentration of Cu^II of 0.5 mM) to both chambers of the bilayer setup and recorded the single ion channel activity over time. […] The cycloaddition reaction was monitored at a constant applied potential of +75 mV. […]
Monitoring a 1,3-dipolar cycloaddition (“click”) reaction in situ using single ion channel recordings: About 3 μl, (from a 100 ng mL^−1 solution in ethanol) of gramicidazide was added (to afford a final concentration of 40 pM of gramicidazide) to each compartment of a bilayer setup containing as electrolyte 20 mM KCl and 0.2 mM HEPES buffer. […] This strategy made it possible to observe measured currents that would frequently return to baseline (i.e., current steps separated by no observed channel events). Consequently, a small number of events over time were observed, and thus analyzed the data over a window of time rather than at specific time points. […] For the 4-15 minute time window, we measured 26 total channel events. […]

[2] = Single channel recordings of gA derivatives in planar lipid bilayers (Example 2); settings: 20 mM KCl
Method: Formation of Planar Lipid Bilayers: Planar lipid bilayers were formed by the “folding technique.” Briefly, a film (e.g., Teflon®, Eastern Scientific Inc, pore diameter 0.1-0.2 mm) that was pretreated on both sides of the pore with 2 μL of 5% (v/v) hexadecane in pentane. This film was mounted using vacuum grease (Dow Corning, High vacuum grease) to a custom-made Teflon chamber separating two buffer compartments each with a volume capacity of 4 mL. After addition of 1 mL of electrolyte (20 mM KCl buffered with 0.2 mM HEPES pH 7.4 or 140 mM KCl buffered with 10 mM phosphate pH 8.0) to each compartment, lipids were spread at the air-water interface of the electrolyte solution in both compartments. Three additional milliliters of the same electrolyte solution were added to each compartment to raise the liquid level above the aperture in the Teflon film. The bilayers were formed on the pore of the Teflon film by aspirating the electrolyte solution into a 3 mL syringe, followed by dispensing the electrolyte solution back into each compartment.
Ion Channel Measurements: Single channel recordings in “voltage clamp mode” were performed using Ag/AgCl pellet electrodes (Warner Instruments) in each compartment of the bilayer setup. Data acquisition and storage was carried out using custom software in combination with an EPC-7 patch clamp amplifier from Heka (set at a gain of 10 mV pA^−1 and a filter cutoff frequency of 3 kHz). The data acquisition board for the amplifier was set to a sampling frequency of 15 kHz. All current traces shown in the figures were further filtered using a digital Gaussian low-pass filter with a cutoff frequency of 4 Hz.
The analysis of single channel current traces was performed by computing histograms of the currents from the original current versus time traces with ClampFit 9.2 software from Axon Instruments. From these histograms, main current values were extracted by fitting a Gaussian function to the peaks in the histograms. […]

[3] = Single channel conductance of gA phosphate and its hydrolysis product in planar lipid bilayers (Example 3); settings: for single channel conductance (γ): 50 mM CsCl, 1 mM MgCl2, 0.5 mM K2CO3, pH 9.8, slopes of I-V curves
Method: Formation of Planar Lipid Bilayers: Planar lipid bilayers were formed by the “folding technique” as previously described. The recording electrolyte was 1 mM MgCl2, 50 mM CsCl buffered with 0.5 mM K2CO3 at pH 9.8. Briefly, we spread a solution containing 25 mg mL^−1 1,2-diphytanoyl-sn-glycero-3-phosphatidylcholine (DiPhyPC) lipids in pentane at the air-water interface of the electrolyte solution in both compartments of the bilayer setup. 3 mL of the total volume of 4 mL of electrolyte solution in each bilayer compartment was aspirated into a syringe, followed by dispensing the electrolyte solution back into each compartment.
Ion Channel Measurements: We performed single channel recordings in “voltage clamp mode” using Ag/AgCl pellet electrodes (Warner Instruments) in each compartment of the bilayer setup. Data acquisition and storage was carried out using custom software in combination with an EPC-7 patch clamp amplifier from Heka (set at a gain of 10 mV pA-1 and a filter cutoff frequency of 3 kHz). The data acquisition board (National Instruments, Austin, Tx) for the amplifier was set to a sampling frequency of 15 kHz. The current traces shown in the FIG. 2 were further filtered using a digital Gaussian low-pass filter with a cutoff frequency of 4 Hz.
Analysis of the single channel current traces was performed by computing histograms of the currents from the original current versus time traces with ClampFit 9.2 software from Axon Instruments. From these histograms we extracted the main current values by fitting a Gaussian function to the peaks in the histograms. All conductance values were obtained from the slopes of I-V curves.

[4] = test system: alkaline phosphatase (AP); assay: Enzymatic hydrolysis of gA phosphate in the presence of AP monitored by single ion channel recordings
Method: To detect a change in single ion channel currents, gA phosphate was added to a final concentration of about 200 pM to both compartments of a planar lipid bilayer platform (FIG. 15) containing a recording electrolyte. AP was added to a final concentration of about 600 nM and the enzymatic conversion of gA phosphate to its hydrolysis product over time was monitored. We estimated the time-dependent conversion of gA phosphate to its hydrolysis product by comparing the fraction of events from gA phosphate to the fraction of events from its hydrolysis product throughout the course of the reaction. […]
Procedure for monitoring the enzymatic hydrolysis of 6 in the presence of AP using single ion channel recordings: For in situ measurements, about 19 μL (from a 100 ng mL-l solution in ethanol) of gA phosphate (to afford a final concentration of 200 pM of 6) was added to each compartment of a bilayer setup containing recording electrolyte. […] Ion channel events were recorded continuously over the course of the reaction. […] Single ion channel events were recorded during a 10 min time window once a day (50-250 events) over the course of 4 days by filling both compartments of the bilayer setup with 4 mL of the solutions with the desired AP concentration. […]

| Substance | time after which the click reaction was complete [1] [min] | single channel conductance (γ) ([2]; 0.2 mM HEPES, 2 mM sodium ascorbate, 2 mM propargyl sulfonate, 0.5 mM CuSO4, pH 6.9, pure samples) [pS] | ion channel activity in planar lipid bilayers ([2]; applied potential 100 mV, 0.2 mM HEPES pH 7.4) | single channel conductance (γ) [3] | single channel conductance (γ) ([3]; listed as 6) | single channel conductance (γ) ([3]; listed as phosphorylated derivative) [pS] | factor by which conductance is larger than that of the gA phosphate hydrolysis product ([3]; 125 mV, buffered recording electrolyte) | time after which almost all recorded ion channel events originated from the hydrolysis product ([4]; 200 pM gA phosphate, 600 nM AP, in situ) [min] | hydrolysis in the absence of AP ([4]; ion channel experiments over the course of 1 h, pH 9.8 recording electrolyte) |
| --- | --- | --- | --- | --- | --- | --- | --- | --- | --- |
| gramicidazide | ~90 | 3.3±0.1 | retained well-defined ion channel activity | – | – | – | – | – | – |
| gramicidine A (gA) phosphate [gA phosphate] | – | – | – | ≈ 16 pS | 16.4±0.3 pS and ≈ 16 pS | 16.4±0.3 | 4 | 35 | No hydrolysis was observed |

Reference: patent US8586369B2, “Ion channel-forming peptides” (The Regents of the University of California, priority 2007, dated 2013)
